Test results as given in patent US4570005A, “Process for the preparation of 2-arylpropyl ether or thioether derivatives” (priority 1980, dated 1986).
Where two headings read alike, the source gives them in different places.

How the values were obtained:
[1] = tested on: resistant green rice leafhopper (collected at Nakagawara); experiment: Test 3: Effect on Resistant Green Rice Leafhopper (collected at Nakagawara); format: in vivo, Nephotettix cincticeps Uhler (Green rice leafhopper); conditions: Nephotettix cincticeps, 24 h, read-out: Mortality (%), Green Rice Leafhopper Collected at Nakagawara
In short: (§1)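 Emulsifiable concentrate diluted to 100 or 20 ppm was sprayed, 3 ml per pot, onto hydroponic rice seedlings at 2–3 leaves. After air-drying, 10 female adults of the Nakagawara (resistant) or Chigasaki (sensitive) strain were released per caged pot. Mortality was counted at 24 h and averaged over three pots.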

[2] = tested on: sensitive green rice leafhopper (collected at Chigasaki); experiment: whole plant or invertebrate; format: in vivo; conditions: Nephotettix cincticeps, sensitive female adults, 24 hours, read-out: Mortality (%), Green Rice Leafhopper Collected at Chigasaki
In short: as §1

[3] = tested on: German cockroach; experiment: Test 7: Effect on German Cockroach; format: in vivo; conditions: Blattella germanica, male adults, agonized and killed after 24 hours, read-out: Mortality (%); for mortality at 10 mg/m2: 10 mg/m^2; for mortality at 50 mg/m2: 50 mg/m^2
Experimental: (§2) To a mixture of 20 parts of the compound of the present invention and 20 parts of Sorpol SM-200 (registered tradename for the product supplied by Toho Chemical Industrial Co., Ltd.) was added 60 parts of xylol, and the mixture was suffciently blended. The obtained emulsifiable concentrate was diluted at a predetermined concentration with distilled water, and the obtained dilution was used.
The bottom face of a high Petri dish having a diameter of 9 cm and a height of 9 cm was treated with 50 or 10 mg/m^2 of a test compound and the dish was air-dried. In order to prevent the adults from escaping from the dish, the inner wall of the dish was treated with butter. Then, 10 male adults of German cockroach were set free in each dish, and the dish was placed in a thermostat chamber maintained at 25° C. After 24 hours, the number of agonized and killed adults was counted. The test was made on two dishes and the average value was calculated.

[4] = Test 8: Fish Toxicity; format: in vivo; conditions: carp, water; concentration at which 1/2 of the test fishes were killed within 48 hours; read-out: Fish Toxicity, TLm48
Experimental: A water tank having a width of 60 cm, a length of 30 cm and a height of 40 cm was filled with water, and 10 yearling carps having a body length of about 5 cm were set free in the tank and adapted to the environment in the tank. A test compound was applied so that the concentration in water was 10, 1 or 0.1 ppm. After 48 hours, the numbers of killed and living carps were counted and the influences on the fishes were examined.

[5] = Test 9: Toxicity Test (acute oral toxicity, mice); conditions: mouse, in vivo, po
Experimental: A predetermined amount of a solution or suspension of a test compound in corn oil was orally administered to male mice having a body weight of 19 to 23 g (0.2 ml per 10 g of the body weight). After 7 days, the number of killed mice was counted and the influences on the mice were examined.

[6] = tested on: green peach aphid; experiment: Test 5: Effect on Green Peach Aphid; format: in vivo; conditions: Myzus persicae, read-out: Insecticidal Activity
Experimental: as §2
Seedlings (having 3 to 4 leaves) of an eggplant grown on a pot were inoculated with green peach aphids and the insects were allowed to grow. The number of the insects was counted. A chemical dilution having a concentration of 100 ppm, prepared in the same manner as described in Test 1, was applied with a spray gun at a rate of 10 ml per pot. Then, the pot was placed in a glass green house. After 24 hours, the number of living insects was counted and the mortality was calculated.
The test was made on three pots, and the average value was calculated. In Table 6, mark "A" indicates a mortality higher than 95%, mark "B" indicates a mortality of 80 to 95%, mark "C" indicates a mortality of 50 to 80%, and mark "D" indicates a mortality lower than 50%.

[7] = tested on: tobacco cutworm; experiment: Test 1: Effect on Tobacco Cutworm (leaf immersion), mortality after 24 hours; format: in vivo; conditions: second-instar larvae, 25° C
Experimental: as §2
An emulsifiable concentrate of a test compound prepared according to the method described in Formulation Example 1 was diluted to a concentration of 100 or 20 ppm. Sweet-potato leaves were immersed in the dilution for 10 seconds, air-dried and placed in a plastic cup having a diameter of 10 cm. Then second-instar larvae of tobacco cutworm were set free in the cup. The cup was allowed to stand still in a thermostat chamber maintained at 25° C. After 24 hours, the numbers of killed and living larvae were counted and the mortality was calculated. The obtained result was expressed by an average value obtained from the mortality calculated in three test cups.

[8] = tested on: diamond back moth; experiment: Test 4: Effect on Diamond Back Moth; format: in vivo; conditions: Plutella, third-instar larvae, 24 hours, read-out: Mortality (%)
Experimental: as §2
Cabbage leaves were spread in a plastic cup, and 10 third-instar larvae of diamond back moth were set free in the cup.
A chemical dilution having a concentration of 100 or 20 ppm, prepared in the same manner as described in Test 1, was applied from an applicator at a rate of 3 ml per cup.
After scattering of the chemical dilution, the cup was covered, and after 24 hours, the numbers of killed and living larvae were counted and the mortality was calculated. The test was made on three cups and the average value was calculated.

[9] = tested on: tobacco cutworm; experiment: Test 2: Tobacco Cutworm Larva Dipping Test, mortality after 24 hours; format: in vivo; conditions: 24 hours
Experimental: as §2
A dilution having a chemical concentration of 100 or 20 ppm was prepared in the same manner as described in Test 1.
Second-instar and fifth-instar larvae of tobacco cutworm were dipped in the dilution for 5 seconds, and the excessive dilution was removed by a filter paper. Then, the larvae were set free in a plastic cup and an artificial diet was supplied thereto. The cup was allowed to stand still in a thermostat chamber maintained at 25° C. After 24 hours, the numbers of the killed and living larvae were counted and the mortality was calculated. The test was made on three cups and the result was expressed by an average value.

[10] = 100 ppm, mortality class, 24 hours
[11] = fifth-instar larvae, read-out: Motality (%), Fifth-Instar Larvae
[12] = second-instar larvae, read-out: Motality (%), Second-Instar Larvae

| Structure (SMILES) | mortality at 20 ppm [1] [%] | mortality at 100 ppm [1] [%] | mortality at 20 ppm [2] [%] | mortality at 100 ppm [2] [%] | mortality at 10 mg/m2 [3] [%] | mortality at 50 mg/m2 [3] [%] | LC50 at 48 h [4] [µg/mL] | LD50 at 168 h [5] [mg/kg] | mortality at 100 ppm ([6]; 24 h) [%] | mortality at 100 ppm [6, 10] [%] | mortality at 20 ppm [7] [%] | mortality at 100 ppm [7] [%] | mortality at 20 ppm [8] [%] | mortality at 100 ppm [8] [%] | mortality at 20 ppm [9, 11] [%] | mortality at 20 ppm [9, 12] [%] | mortality at 100 ppm [9, 11] [%] | mortality at 100 ppm [9, 12] [%] |
| --- | --- | --- | --- | --- | --- | --- | --- | --- | --- | --- | --- | --- | --- | --- | --- | --- | --- | --- |
| CC(C)(COCc1cccc(Oc2ccccc2)c1)c1ccc2ccccc2c1 [Compound 31, 3-Phenoxybenzyl 2-(2-naphthyl)-2-methylpropyl ether] | 100 | 100 | 100 | 100 | 100 | 100 | > 10 | > 500 | – | – | – | – | – | – | – | – | – | – |
| COP(=O)(NC(C)=O)SC (stereo not shown) [Comparative Compound (h), O,S-dimethyl N-acetylphosphoroamidothiolate, reference compound] | – | – | – | – | – | – | – | – | 80 to 95 | – | – | – | – | – | – | – | – | – |
| COC(C)c1ccc(C(C)(C)COCc2cccc(Oc3ccccc3)c2)cc1 (stereo not shown) [Compound 86, 3-Phenoxybenzyl 2[4-(1-methoxyethyl)phenyl]-2-methylpropyl ether] | – | – | – | – | – | – | – | > 500 | – | 80 to 95 | – | – | – | – | – | – | – | – |
| CCOc1ccc(C(C)(CC)COCc2cccc(Oc3ccccc3)c2)cc1 (stereo not shown) [Compound 103, 3-Phenoxybenzyl 2-(4-ethoxyphenyl)-2-ethylpropyl ether] | 100 | 100 | 100 | 100 | – | – | – | > 500 | – | > 95 | 100 | 100 | – | – | – | – | – | – |
| CC(C)(COCc1cccc(Oc2ccc(Br)cc2)c1)c1ccc(OC(F)F)cc1 [Compound 30, 3-(4-Bromophenoxy)benzyl 2-(4-difluoromethoxyphenyl)-2-methylpropyl ether] | 100 | 100 | 100 | 100 | – | – | > 1 | > 500 | – | – | 80 | 100 | 70 | 100 | – | – | – | – |
| CCC(C)(COCc1cccc(Oc2ccc(F)cc2)c1)c1ccc(F)cc1 (stereo not shown) [Compound 2, 3-(4-fluorophenoxy)benzyl 2-(4-fluorophenyl)-2-methylbutyl ether] | 95 | 100 | 80 | 100 | – | – | > 1 | > 500 | – | – | 90 | 100 | 100 | 100 | – | – | – | – |
| CC(C)(COCc1cccc(Oc2ccccc2)c1)c1ccc(F)cc1 [Compound 51, 3-Phenoxybenzyl 2-(4-fluorophenyl)-2-methylpropyl ether] | 100 | 100 | 100 | 100 | – | – | > 1 | > 500 | – | – | 100 | 100 | – | – | – | – | – | – |
| C#Cc1ccc(C(C)(C)COCc2cccc(Oc3ccccc3)c2)cc1 [Compound 96, 3-Phenoxybenzyl 2-(4-ethynylphenyl)-2-methylpropyl ether] | 90 | 100 | 60 | 100 | – | – | – | > 500 | – | 80 to 95 | – | – | – | – | – | – | – | – |
| CCOc1ccc(C(C)(C)COCc2cccc(Oc3ccccc3)c2)cc1Cl [Compound 78, 3-Phenoxybenzyl 2-(3-chloro-4-ethoxyphenyl)-2-methylpropyl ether] | 100 | 100 | 100 | 100 | – | – | – | > 500 | – | > 95 | 100 | 100 | 100 | 100 | – | – | – | – |
| CCOc1ccc(C(C)(C)CSCc2cccc(Oc3ccccc3)c2)cc1 [Compound 95] | 100 | 100 | 100 | 100 | – | – | – | > 500 | – | > 95 | 100 | 100 | – | – | – | – | – | – |
| Cc1ccc(C(C)(C)COCc2cccc(Oc3ccc(F)cc3)c2)cc1 [Compound 3, 3-(4-Fluorophenoxy)benzyl 2-(4-methylphenyl)-2-methylpropyl ether] | 100 | 100 | 100 | 100 | – | – | – | > 500 | – | > 95 | 83 | 100 | – | – | 60 | 70 | 70 | 90 |
| CC(C)(COCc1cccc(Oc2ccc(Br)cc2)c1)c1ccc(Cl)cc1 [Compound 4, 3-(4-Bromophenoxy)benzyl 2-(4-chlorophenyl)-2-methylpropyl ether] | 70 | 100 | 50 | 100 | – | – | > 10 | > 500 | – | – | 95 | 100 | 100 | 100 | 70 | 90 | 80 | 90 |
| CC(C)(CSCc1cccc(Oc2ccc(Br)cc2)c1)c1ccc(Cl)cc1 [Compound 37] | 70 | 100 | 50 | 100 | – | – | > 10 | > 500 | – | – | 100 | 100 | 100 | 100 | – | – | – | – |
| CC(C)(COCc1cccc(C(=O)c2ccccc2)c1)c1ccc(Cl)cc1 [Compound 22, 3-Benzoylbenzyl 2-(4-chlorophenyl)-2-methylpropyl ether] | 80 | 100 | 50 | 100 | 90 | 100 | > 10 | > 500 | – | – | – | – | – | – | – | – | – | – |
